The results in this text go back to patent US8754049B2, “Organic compound for the regulation of vectorial ion channels” (APEPTICO Forschung und Entwicklung GmbH, priority 2010, dated 2014).

Non-standard residues stand in square brackets, D forms with d. Residues, ends and D or L forms follow the SMILES beside them. Ahp = NCCCCCCC(=O)O

For series [1], the target named is T1, epithelial sodium channels (Homo sapiens, UniProt P37088+P51168+P51170).
T1 construct: endogenous in cells; host or cells: A549 human lung epithelial cells (ATTC No. CCL-185)
Put plainly: Patch-clamp measurement, whole cell configuration, amiloride-sensitive sodium current in A549 cells. The format is cell-based. Particulars: for Activity in comparison to a peptide SEQ ID NO: 10 CGQRETPEGAEKPWYC ("TIP-Peptid", Lucas et al. Science 1994 also WO00/09149): whole cell patch-clamp, A549 cells, amiloride-sensitive sodium current, relative to TIP peptide SEQ ID NO: 10. An excerpt:
The detection of a vectorial regulation of ion channels by a compound may be effected according to a method common in laboratories, for example, according to Clunes M. T. et al., J. Physiolo. (2004) 557.3: 809-819), via patch-clamp experiments. For patch-clamp examinations of ion channels, a glass cannula is stretched thin and filled with a neutral buffer solution. The glass cannula (patch-clamp pipette) is carefully pressed onto an intact epithelial cell. A piece of membrane is located below the pipette. An electrical resistance is thereby produced between the interior of the pipette and the external solution. An electrode attached to a sensitive amplifier dips into the pipette solution.
A regulation of the vectorial epithelial ion channels is detected via a change in the current intensity with a constant voltage.
(§1) The electrophysiological experiments were performed on human A549 cells (ATTC No. CCL-185). A549 cells are human lung epithelial cells which are involved in the diffusion of water and electrolytes in the lungs. The cells were suspended in RPMI-1640 medium (Sigma-Aldrich, product number R6504) with 1% penicillin/streptomycin and 10% fetal calf serum, transferred into plastic cell culture vessels and cultivated in an incubator with 95% air and 5% CO2 at 37° C. The medium was changed 2 to 3 times per week. The cells double within approx. 22 hours, and a cell concentration of more than 7×10^4 cells per cm^2 was not exceeded.
For the patch-clamp experiments, the cells were transferred onto small glass plates.
Macroscopic currents were discharged from A549 cells in the “whole cell” configuration of the “patch-clamp” technique (Hamill et al, Pflugers Arch. 1981, 391(2):85-100, 1981). For the current dissipations in the “whole cell” configuration, the following bath and electrode solutions were used:
Bath solution: 135 mM sodium methanesulfonate, 10 mM NaCl, 2.7 mM KCl, 1.8 mM CaCl2, 2 mM MgCl2, 5.5 mM glucose, and 10 mM HEPES, pH 7.4.
Electrode solution: 120 mM potassium methanesulfonate, 15 mM KCl, 6 mM NaCl, 1 mM Mg2ATP, 2 mM Na3ATP, 10 mM HEPES, and 0.5 mM EGTA (pH 7.2).
Cover slips with the cells cultivated thereon were transferred into a test bath with a capacity of 1 ml, fixed on the microscope table (Axiovert 100, 400-fold magnification), and the cells were superfused with the above-described bath solution. Thereupon, the current was discharged from a suitable cell (which adheres to the cover slip). For this purpose, a microelectrode filled with an electrolyte solution (glass capillary with a defined, heat-polished tip opening of about 1-3 μm, corresponding to a resistance of the electrode tip of […]) was placed on the cell and the membrane was sucked in so that a “Gigaohm seal” was formed between the membrane and the electrode in order to minimize the leakage current. In the “whole cell” configuration, the membrane was penetrated beneath the electrode tip so that the current flowing through all ion channels of the cell could be measured. Upon obtaining a Gigaohm seal, a defined membrane retaining potential was applied via a pre-amplifier (CV-4 Headstage, Axon Instruments) and an amplifier (Axopatch 1 D, Axon Instr.) and the current thereby flowing through the ion channels was measured.
The pulse protocol consisted of a hyperpolarization of the cell membrane to −100 mV for 5 s and a subsequent gradual depolarization to +100 mV in 20 mV steps.
This protocol was performed before (control) and after the addition of ring-shaped organic molecules. The current dissipations thus obtained were stored and analyzed by means of the program PCLAMP 6.0. For this purpose, the current dissipations obtained in the presence of amiloride were subtracted from the currents recorded earlier so that the amiloride-sensitive sodium current through the epithelial sodium channels could be determined.
Background: In patch-clamp work, channel activity is measured electrically.

The subject of the next series is human A549 cells. As to the kind of experiment: Microscopic observation of A549 cells after addition of compounds. Type of series: cell-based. Particulars: microscopic observation after addition of compound. The procedure: as §1
The cells were microscopically observed.

T1 sequence (P51170 whole entry): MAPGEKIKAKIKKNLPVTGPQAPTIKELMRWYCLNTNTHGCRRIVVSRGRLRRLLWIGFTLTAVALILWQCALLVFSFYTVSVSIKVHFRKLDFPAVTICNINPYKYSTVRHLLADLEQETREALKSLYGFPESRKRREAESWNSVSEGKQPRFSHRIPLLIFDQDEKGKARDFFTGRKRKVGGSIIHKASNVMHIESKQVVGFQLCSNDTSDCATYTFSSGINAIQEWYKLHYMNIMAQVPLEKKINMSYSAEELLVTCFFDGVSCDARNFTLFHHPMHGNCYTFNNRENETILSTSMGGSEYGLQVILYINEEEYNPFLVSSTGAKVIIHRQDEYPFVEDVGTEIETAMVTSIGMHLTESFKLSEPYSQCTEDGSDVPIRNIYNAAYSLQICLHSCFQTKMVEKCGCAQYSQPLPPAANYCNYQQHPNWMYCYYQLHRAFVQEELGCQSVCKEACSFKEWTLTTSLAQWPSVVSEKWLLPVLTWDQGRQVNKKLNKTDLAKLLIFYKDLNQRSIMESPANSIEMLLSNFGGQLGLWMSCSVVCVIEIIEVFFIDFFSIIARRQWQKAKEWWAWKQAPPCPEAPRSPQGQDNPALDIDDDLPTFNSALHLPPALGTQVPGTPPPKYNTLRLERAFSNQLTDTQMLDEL
T1 sequence (P37088 whole entry): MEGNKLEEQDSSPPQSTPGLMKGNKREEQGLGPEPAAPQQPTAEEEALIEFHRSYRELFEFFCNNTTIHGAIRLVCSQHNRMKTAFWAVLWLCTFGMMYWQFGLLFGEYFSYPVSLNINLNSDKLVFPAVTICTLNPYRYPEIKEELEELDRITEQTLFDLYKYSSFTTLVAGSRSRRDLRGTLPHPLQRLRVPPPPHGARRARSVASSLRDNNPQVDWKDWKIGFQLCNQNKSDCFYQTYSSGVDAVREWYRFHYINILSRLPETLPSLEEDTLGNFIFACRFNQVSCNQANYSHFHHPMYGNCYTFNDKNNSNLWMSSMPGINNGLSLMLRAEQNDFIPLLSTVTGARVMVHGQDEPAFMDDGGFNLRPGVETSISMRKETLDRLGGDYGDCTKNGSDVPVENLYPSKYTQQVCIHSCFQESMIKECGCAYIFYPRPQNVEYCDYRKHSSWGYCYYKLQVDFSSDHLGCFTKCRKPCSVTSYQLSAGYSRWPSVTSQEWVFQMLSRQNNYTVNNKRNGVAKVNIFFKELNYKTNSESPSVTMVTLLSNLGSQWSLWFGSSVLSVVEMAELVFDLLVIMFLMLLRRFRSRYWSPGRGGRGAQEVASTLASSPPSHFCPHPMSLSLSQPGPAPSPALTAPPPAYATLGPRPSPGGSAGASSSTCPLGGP
T1 sequence (P51168 whole entry): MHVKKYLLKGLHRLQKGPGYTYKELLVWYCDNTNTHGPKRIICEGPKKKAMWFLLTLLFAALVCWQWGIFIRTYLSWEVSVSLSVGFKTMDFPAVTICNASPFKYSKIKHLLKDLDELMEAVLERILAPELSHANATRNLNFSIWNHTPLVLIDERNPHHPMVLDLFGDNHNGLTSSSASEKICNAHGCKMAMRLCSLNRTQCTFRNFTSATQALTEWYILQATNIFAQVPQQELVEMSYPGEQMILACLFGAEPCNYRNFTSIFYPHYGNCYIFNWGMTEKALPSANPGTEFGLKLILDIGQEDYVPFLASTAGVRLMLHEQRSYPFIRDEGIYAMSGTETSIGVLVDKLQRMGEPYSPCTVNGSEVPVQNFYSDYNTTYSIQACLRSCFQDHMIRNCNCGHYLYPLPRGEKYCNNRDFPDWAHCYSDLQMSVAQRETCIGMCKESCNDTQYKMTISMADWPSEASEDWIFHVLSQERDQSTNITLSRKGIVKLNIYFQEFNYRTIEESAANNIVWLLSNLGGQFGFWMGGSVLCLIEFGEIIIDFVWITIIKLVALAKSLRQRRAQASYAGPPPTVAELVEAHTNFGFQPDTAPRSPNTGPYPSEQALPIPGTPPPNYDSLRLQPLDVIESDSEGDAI

Take “LSPGQRETPEGAEAKPWYE (peptide published in WO 2009/073909) [SEQ ID NO: 12, known peptide from WO2009/073909 (PCT AT2008 448), reference compound]”: the “Activity in comparison to a peptide SEQ ID NO: 10 CGQRETPEGAEKPWYC ("TIP-Peptid", Lucas et al. Science 1994 also WO00/09149)” value in series [1] is listed as 60%.

On to `C[C@@H]1NC(=O)CNC(=O)[C@H](CCC(=O)O)NC(=O)[C@@H]2CCCN2C(=O)[C@H]([C@@H](C)O)NC(=O)[C@H](CCC(=O)O)NC(=O)[C@H](CCCNC(=N)N)NC(=O)[C@H](CCC(N)=O)NC(=O)CNC(=O)CCCNC(=O)C[C@@H](C(=O)O)NC(=O)[C@H](Cc2ccc(O)cc2)NC(=O)[C@H](Cc2c[nH]c3ccccc23)NC(=O)[C@@H]2CCCN2C(=O)[C@H](CCCCN)NC(=O)[C@H](C)NC(=O)[C@H](CCC(=O)O)NC1=O` [SEQ ID NO: 5, [gamma-aminobutyric acid-GQRETPEGAEAKPWYD-OH] (cyclo 1-Dγ17)], for which, in the series on human A549 cells, the “changes in morphology or cell growth” value is reported as “did not produce any changes in morphology or cell growth” and the death of cells entry is given as “did not result in the death of cells”. Moreover, in series [1], the “Activity in comparison to a peptide SEQ ID NO: 10 CGQRETPEGAEKPWYC ("TIP-Peptid", Lucas et al. Science 1994 also WO00/09149)” value is reported as 160%.

Take `C[C@@H]1NC(=O)CNC(=O)[C@H](CCC(=O)O)NC(=O)[C@@H]2CCCN2C(=O)[C@H]([C@@H](C)O)NC(=O)[C@H](CCC(=O)O)NC(=O)[C@H](CCCNC(=N)N)NC(=O)[C@H](CCC(N)=O)NC(=O)CNC(=O)CCCCCCNC(=O)[C@H](Cc2ccc(O)cc2)NC(=O)[C@H](Cc2c[nH]c3ccccc23)NC(=O)[C@@H]2CCCN2C(=O)[C@H](CCCCN)NC(=O)[C@H](C)NC(=O)[C@H](CCC(=O)O)NC1=O` [SEQ ID NO: 7, [7-amino-heptanoic acid-GQRETPEGAEAKPWY] (cyclo 1-16)] (cyclo(AEAKPWY[Ahp]GQRETPEG)): in the series on human A549 cells, the “changes in morphology or cell growth” value was “did not produce any changes in morphology or cell growth” and the death of cells entry is “did not result in the death of cells”.

With `C[C@@H]1NC(=O)CNC(=O)[C@H](CCC(=O)O)NC(=O)[C@@H]2CCCN2C(=O)[C@H]([C@@H](C)O)NC(=O)[C@H](CCC(=O)O)NC(=O)[C@H](CCCNC(=N)N)NC(=O)[C@H](CCC(N)=O)NC(=O)CNC(=O)[C@@H](N)CCCNC(=O)CNC(=O)[C@H](Cc2ccc(O)cc2)NC(=O)[C@H](Cc2c[nH]c3ccccc23)NC(=O)[C@@H]2CCCN2C(=O)[C@H](CCCCN)NC(=O)[C@H](C)NC(=O)[C@H](CCC(=O)O)NC1=O` [SEQ ID NO: 2, [ornithine-GQRETPEGAEAKPWYG] (cyclo Orn-delta1-G17)], in the series with human A549 cells, the “changes in morphology or cell growth” value is on record as “did not produce any changes in morphology or cell growth” and the death of cells entry is “did not result in the death of cells”. Further, in series [1], the “Activity in comparison to a peptide SEQ ID NO: 10 CGQRETPEGAEKPWYC ("TIP-Peptid", Lucas et al. Science 1994 also WO00/09149)” value is listed as 115%.

Consider `C[C@@H]1NC(=O)CNC(=O)[C@H](CCC(=O)O)NC(=O)[C@@H]2CCCN2C(=O)[C@H]([C@@H](C)O)NC(=O)[C@H](CCC(=O)O)NC(=O)[C@H](CCCNC(=N)N)NC(=O)[C@H](CCC(N)=O)NC(=O)CNC(=O)CCCNC(=O)CNC(=O)[C@H](Cc2ccc(O)cc2)NC(=O)[C@H](Cc2c[nH]c3ccccc23)NC(=O)[C@@H]2CCCN2C(=O)[C@H](CCCCN)NC(=O)[C@H](C)NC(=O)[C@H](CCC(=O)O)NC1=O` [SEQ ID NO: 4, [gamma-aminobutyric acid-GQRETPEGAEAKPWYG] (cyclo 1-17)], for which, in the series with human A549 cells, the “changes in morphology or cell growth” value is “did not produce any changes in morphology or cell growth” and the death of cells result is reported as “did not result in the death of cells”.

For “[6-amino-hexanoic acid-GQRETPEGAEAKPWYG] (cyclo 1-17) [SEQ ID NO: 8]”, in the series on human A549 cells, the “changes in morphology or cell growth” value was “did not produce any changes in morphology or cell growth” and the death of cells entry is listed as “did not result in the death of cells”. Besides, the “activation of the vectorial ionic current compared with known peptides SEQ ID NO: 10, 11 and 12” value in series [1] (patch-clamp, comparison in words) was “significantly higher activations of the vectorial ionic current”. Moreover, in series [1], the “Activity in comparison to a peptide SEQ ID NO: 10 CGQRETPEGAEKPWYC ("TIP-Peptid", Lucas et al. Science 1994 also WO00/09149)” value is recorded as 150%.

In the case of `C[C@@H]1NC(=O)CNC(=O)[C@H](CCC(=O)O)NC(=O)[C@@H]2CCCN2C(=O)[C@H]([C@@H](C)O)NC(=O)[C@H](CCC(=O)O)NC(=O)[C@H](CCCNC(=N)N)NC(=O)[C@H](CCC(N)=O)NC(=O)CNC(=O)[C@@H](N)CCCCNC(=O)CNC(=O)[C@H](Cc2ccc(O)cc2)NC(=O)[C@H](Cc2c[nH]c3ccccc23)NC(=O)[C@@H]2CCCN2C(=O)[C@H](CCCCN)NC(=O)[C@H](C)NC(=O)[C@H](CCC(=O)O)NC1=O` [SEQ ID NO: 1, [KGQRETPEGAEAKPWYG] (cyclo Kepsilon1-G17)], in the series on human A549 cells, the “changes in morphology or cell growth” value is reported as “did not produce any changes in morphology or cell growth” and the death of cells result is reported as “did not result in the death of cells”. Moreover, the “Activity in comparison to a peptide SEQ ID NO: 10 CGQRETPEGAEKPWYC ("TIP-Peptid", Lucas et al. Science 1994 also WO00/09149)” value in series [1] came out at 150%.

Take `C[C@@H]1NC(=O)CNC(=O)[C@H](CCC(=O)O)NC(=O)[C@@H]2CCCN2C(=O)[C@H]([C@@H](C)O)NC(=O)[C@H](CCC(=O)O)NC(=O)[C@H](CCCNC(=N)N)NC(=O)[C@H](CCC(N)=O)NC(=O)CNC(=O)CCCCNC(=O)CNC(=O)[C@H](Cc2ccc(O)cc2)NC(=O)[C@H](Cc2c[nH]c3ccccc23)NC(=O)[C@@H]2CCCN2C(=O)[C@H](CCCCN)NC(=O)[C@H](C)NC(=O)[C@H](CCC(=O)O)NC1=O` [SEQ ID NO: 3, [5-amino-pentanoic acid-GQRETPEGAEAKPWYG] (cyclo 1-17)]: in the series with human A549 cells, the “changes in morphology or cell growth” value is listed as “did not produce any changes in morphology or cell growth” and the death of cells result is “did not result in the death of cells”.

With `C[C@@H]1NC(=O)CNC(=O)[C@H](CCC(=O)O)NC(=O)[C@@H]2CCCN2C(=O)[C@H]([C@@H](C)O)NC(=O)[C@H](CCC(=O)O)NC(=O)[C@H](CCCNC(=N)N)NC(=O)[C@H](CCC(N)=O)NC(=O)CNC(=O)CCNC(=O)CC[C@@H](C(=O)O)NC(=O)[C@H](Cc2ccc(O)cc2)NC(=O)[C@H](Cc2c[nH]c3ccccc23)NC(=O)[C@@H]2CCCN2C(=O)[C@H](CCCCN)NC(=O)[C@H](C)NC(=O)[C@H](CCC(=O)O)NC1=O` [SEQ ID NO: 6, [3-amino-propanoic acid-GQRETPEGAEAKPWYE-OH] (cyclo 1-Eδ17)], in the series on human A549 cells, the “changes in morphology or cell growth” value is listed as “did not produce any changes in morphology or cell growth” and the death of cells entry is reported as “did not result in the death of cells”. Besides, in series [1], the “Activity in comparison to a peptide SEQ ID NO: 10 CGQRETPEGAEKPWYC ("TIP-Peptid", Lucas et al. Science 1994 also WO00/09149)” value was 150%.

On to “CGTKPIELGPDEPKAVC (peptide published in EP 2 009 023) [SEQ ID NO: 11, known peptide for controlling fluid content in the alveoli, from EP 2 009 023, reference compound]”, for which the “Activity in comparison to a peptide SEQ ID NO: 10 CGQRETPEGAEKPWYC ("TIP-Peptid", Lucas et al. Science 1994 also WO00/09149)” value in series [1] was determined as 80%.
